These results are taken from patent US20250204541A1, “GAS PHASE TREATMENT OF PRODUCE” (priority 2022, published 2025).

Each structure is given as a SMILES string.

What all share (assay type): in vivo
One data set concerns avocados. The procedure: Example 11. The ripening characteristics of avocados exposed to AITC vapor was analyzed. Treatment groups consisted of avocados that were: exposed to the vapor of 125 μL of AITC in a Petri dish for 30 min and 18 hours; exposed to the vapor of 500 μL of AITC for 30 minutes and 18 hours; untreated and kept 18 hours in a bin; and treated with a coating agent. Two sets of the preceding test groups were studied. One set was treated when cold along with coated fruit (i.e., fruit treated with a coating agent (95 wt % glyceryl monostearate and 5 wt % sodium stearate) and another set was treated when warm (one day out of cold storage). Daily measurements were made of respiration and firmness (using a durometer). At the start of the test, the avocados were placed in cold storage. After one day, the cold treated avocados were treated with AITC directly after removal from cold storage. The coated group was treated at this time. The warm treated avocados were allowed to warm to room temperature. On the second day, measurements were begun on the cold treated avocados and AITC treatments began on the warm treated samples. On the third day, measurements began on the warm treated groups. […]
Example 23: The ripening characteristics of avocados exposed to AITC vapor, a coating agent (95 wt % glyceryl monostearate and 5 wt % sodium stearate), and AITC plus the coating agent was analyzed. […]

Data set [1] has as its system Penicillium italicum (Pi). Kind of data set: Antifungal activity of vapor against Penicillium italicum in wounded, infected mandarins. To be noted: 72 hours vapor of 3 mL in a Petri dish. On the procedure:
Example 2. The antifungal activity of allyl isothiocyanate (AITC) and DADS vapor was tested against Pd and Penicillium italicum (Pi) in mandarins. All samples were wounded by puncturing with a screw. Mandarins were infected by dispensing either 1000 Pd spores or 1000 Pi spores suspended in 10 μL into the wound. The test groups consisted of mandarins that were: uninfected and untreated; uninfected and treated by dipping in a solution of 1 g/L of imazalil; infected with Pd and untreated; infected with Pd and exposed to AITC; infected with Pd and exposed to DADS; infected with Pi and untreated; infected with Pi and exposed to AITC; and infected with Pi and exposed to DADS. Exposure to AITC or DADS consisted of exposing the mandarins for 72 hours to the vapor of 3 mL of the respective compound dispensed in a Petri dish. […] DADS vapor reduced the incidence of Pd mold by 85% and Pi mold by 30% compared to the respective untreated/infected test groups. […] Both AITC and DADS were effective at preventing fungal growth. The inhibition from AITC was approximately 100%, with some changes in visible appearance.

The subject of the next data set is grapes. Kind of data set: Visible appearance of vapor-treated grapes. The procedure: Example 12. The antifungal activity of AITC and DADS vapor against Botrytis cinerea (Bc) in grapes was tested. All samples were wounded by making a 3 mm deep puncture in the skin. Samples were infected by dispensing 1000 Bc spores suspended in 10 μL of water in the wound. The test groups consisted of grapes that were: uninfected and untreated; infected and untreated; exposed to the vapor of 3 mL of AITC in a Petri dish for 72 hours; and exposed to the vapor of 3 mL of DADS in a Petri dish for 72 hours. FIG. 17 quantifies the infection results. […] Both AITC and DADS vapor were effective at controlling Bc mold. Treatment with AITC can potentially lead to changes in color or flavor of the grapes.

As for `C=CCN=C=S` [AITC, allyl isothiocyanate], the “quality and defects of treated avocados” value in the data set with avocados (Example 23, avocados, vapor of 500 μL, 11 days of incubation) was “higher quality and had fewer defects than the untreated avocados and the avocados treated with the coating agent alone”. For the same compound, in the data set with avocados (in vivo), the “effect on avocado peel and firmness” value was “darkening and thickening of the avocado peel and a prolonged feeling a firmness”. In addition, in data set [1] (mandarins infected with Pi), the “inhibition of fungal growth” value is “approximately 100%”. Moreover, the “effect on Pi infection” value in data set [1] (mandarins) is on record as “substantially prevented”. In addition, in the data set with grapes (in vivo), the “visible appearance of treated fruit” value is “darkening of the fruit”.

Consider `C=CCSSCC=C` [DADS, diallyl disulfide], for which the “reduction of the incidence of Pi mold compared to the untreated/infected test group” value in data set [1] (mandarins) is given as 30%. Further, the “visible appearance of treated fruit” value in the data set with grapes (grapes, vapor of 3 mL in a Petri dish for 72 hours) was “appeared unchanged”.
